Like-named read-outs stand apart in the source and are kept apart here. Blank lines part the entries; values can stand above or below the compound they belong to.
Key:
[1] = target: rat brain adenylyl cyclase; conditions: cited from earlier work
[2] = test system: Ob1771 pre-adipocytes; assay: inhibition of forskolin-stimulated [3H]cAMP formation in cells prelabeled with [3H]adenine, Ob1771; format: cell-based; conditions: read-out: IC50, forskolin-stimulated [3H]cAMP formation, Ob1771 pre-adipocytes
Method: (§1) The nucleotide prodrugs were tested for their capacity to inhibit the forskolin-stimulated formation of [^3H]cAMP in cells that had been preloaded with [^3H]adenine. Human macrophages and two preadipocyte cell lines were tested.
(§2) (i) Preadipocytes: Preadipocytes were cultured in DMEM LG medium that was supplemented with 8% fetal bovine serum and 1% of an antibiotics mixture in 2 ml Petri dishes until they reached 90-95% confluence. Growth medium was removed and 1 ml of DMEM LG medium containing 2,8-[^3H]-adenine (5μCi) was added to each dish. Cells were incubated for 2 h at 37° C. Medium was removed and cells were incubated for 15 min at 37° C. in 1 ml of unsupplemented medium. The medium was removed and 1 ml of DMEM LG medium supplemented with 0.1 mg/ml bovine serum albumin and 0.1 mM 3-isobutyl-1-methylxanthine was added.
(§3) Ten microliters of a solution of the test substance was added to yield the appropriate concentration of inhibitor in the medium. After 15 min of incubation at 37° C. 3 μl of a 10 mM solution of forskolin in ethanol was added to the medium and the cells were further incubated for 15 min at 37° C. The medium was removed and the reaction was stopped by the addition of 1 ml of a freshly prepared solution of 0.5 mM solution of cAMP in 0.3 M perchloric acid. Dishes were then kept on ice for 30 min. To 800 μl of the resulting cell extract was then added 90 μl of 0.5 M triethanolammonium chloride butler (pH=7.5). The extract was then neutralized by addition of aqueous potassium hydroxide. [^3H]cAMP was purified from a 700 μl portion of this mixture by sequential chromatography on Dowex 50 and alumina as previously described. A portion of the purified sample was used to quantify the […] formed and the remainder was used to quantify recovery by UV spectroscopy.

[3] = test system: F442A pre-adipocytes; assay: inhibition of forskolin-stimulated [3H]cAMP formation in cells prelabeled with [3H]adenine, F442A; format: cell-based; conditions: 15 min preincubation, forskolin 15 min
Method: as §1, §2, §3

[4] = test system: preadipocyte cell lines; assay: differentiation of preadipocyte cell lines; format: cell-based; conditions: both preadipocyte cell lines; not shown
[5] = test system: rat atria; assay: contractility of isolated spontaneously contracting rat atria; conditions: preincubation with 10 μM for 15 min
Method: To test this, rat atria were excised from a male albino rat and attached to a strain gauge to allow contractions to be measured. The spontaneously contracting tissue was suspended in a chamber and allowed to equilibrate for 15 min in Krebs-Henseleit medium (Sigma K3753) supplemented with 25 mM […], 2.5 mM CaCl2, and 2 mM pyruvate, maintained at 37° and continuously gassed with […].

[6] = test system: Human Macrophages; assay: inhibition of forskolin-stimulated [3H]cAMP formation in cells prelabeled with [3H]adenine, macrophages; format: cell-based; conditions: read-out: IC50, forskolin-stimulated [3H]cAMP formation, Human Macrophages
Method: as §1
(ii) Macrophages. Macrophages were plated on culture dishes and allowed to adhere in RPMI culture medium. Cells were labeled with 2,8-[^3H]-adenine as described above for the preadipocytes.
as §3

[7] = test system: adenylyl cyclase of Ob1771 cell membranes; assay: inhibition of adenylyl cyclase of Ob1771 cell membranes; format: biochemical; conditions: for IC50: 100 μM 5′ATP, 5 mM MnCl2, 100 μM forskolin, determined graphically
Method: (§4) Adenylyl cyclase activities were determined as previously described, with a reaction mixture containing 100 μM 5′ATP, 5 mM MnCl2, and 100 μM forskolin. IC50 values were determined graphically.

[8] = test system: isoproterenol-stimulated, cAMP/PKA-dependent Cl− channel of cardiac ventricular myocytes; assay: block of isoproterenol-stimulated Cl- channel in cardiac ventricular myocytes; format: cell-based; conditions: not shown, read-out: IC50 for block of Cl− channel function
[9] = test system: adenylyl cyclase isolated from these tissues; assay: effect on adenylyl cyclase isolated from the tissues; format: biochemical; conditions: concentrations up to 300 μM
[10] = test system: rat brain adenylyl cyclase; assay: inhibition of rat brain adenylyl cyclase; format: biochemical
Method: as §4

[11] = Table 1, from Johnson and coll. [27-32], read-out: IC50 for rat brain adenylyl cyclase
[12] = Table 1, read-out: IC50 to inhibit adenylyl cyclase
[13] = Ob1771, 15 min preincubation, forskolin 15 min
[14] = 100 μM 5′ATP, 5 mM MnCl2, 100 μM forskolin, determined graphically, read-out: IC50, Rat Brain Adenylyl Cyclase
[15] = 2′-triphosphate forms, read-out: IC50 for inhibition of rat brain adenylyl cyclase

Compound: CC1OC(n2cnc3c(N)ncnc32)CC1OP(=O)(O)OP(=O)(O)OP(=O)(O)OP(=O)(O)O (centres unmarked) [2′,5′ddAdo 3′˜PPPP]
IC50 [1, 11]: 7.4 nM

Compound: C[C@H]1O[C@@H](n2cnc3c(N)ncnc32)C[C@@H]1OP(=O)(O)OP(=O)(O)OP(=O)(O)O [2′,5′ddAdo 3′˜PPP]
IC50 [1, 12]: 40 nM

Compound: CC1OC(n2cnc3c(N)ncnc32)CC1OP(=O)(O)OP(=O)(O)O (centres unmarked) [2′,5′ddAdo 3′˜PP]
IC50 [1, 11]: 100 nM

Compound: C[C@H]1O[C@@H](n2cnc3c(N)ncnc32)C[C@@H]1OP(O)(O)=S [2′,5′ddAdo 3′˜PS]
IC50 [1, 11]: 600 nM

Compound: C[C@H]1O[C@@H](n2cnc3c(N)ncnc32)C[C@@H]1OP(=O)(O)O [2′,5′ddAdo 3′˜P]
IC50 [1, 11]: 460 nM

Compound: C[C@H]1O[C@@H](n2cnc3c(N)ncnc32)C[C@@H]1O [2′,5′ddAdo, 2′,5′-dideoxyadenosine]
IC50 [1, 11]: 2700 nM

Compound: Nc1ncnc2c1ncn2C1CC(OP(=O)(O)OP(=O)(O)OP(=O)(O)OP(=O)(O)O)C(CO)O1 (centres unmarked) [2′dAdo 3′˜PPPP]
IC50 [1, 11]: 10.5 nM

Compound: Nc1ncnc2c1ncn2C1CC(OP(=O)(O)OP(=O)(O)OP(=O)(O)O)C(CO)O1 (centres unmarked) [2′dAdo 3′˜PPP]
IC50 [1, 11]: 90 nM

Compound: Nc1ncnc2c1ncn2C1CC(OP(=O)(O)OP(=O)(O)O)C(CO)O1 (centres unmarked) [2′dAdo 3′˜PP]
IC50 [1, 11]: 140 nM

Compound: Nc1ncnc2c1ncn2[C@H]1C[C@H](OP(O)(O)=S)[C@@H](CO)O1 [2′dAdo 3′˜PS]
IC50 [1, 11]: 3100 nM

Compound: Nc1ncnc2c1ncn2[C@H]1C[C@H](OP(=O)(O)O)[C@@H](CO)O1 [2′dAdo 3′˜P]
IC50 [1, 11]: 1200 nM

Compound: Nc1ncnc2c1ncn2[C@H]1C[C@H](O)[C@@H](CO)O1 [2′dAdo]
IC50 [1, 11]: 15000 nM

IC50 [2, 13]: > 30000 nM
Compound: CC(C)(C)C(=O)SCCOP(=O)(OCCSC(=O)C(C)(C)C)O[C@H]1CCC[C@H]1n1cnc2c(N)ncnc21 [(1R,2S)-9-(cyclopentyl)-Ade-2′-P-bis(t-Bu-SATE)]

IC50 [2, 13]: > 30000 nM
Compound: CC(C)(C)C(=O)SCCOP(=O)(OCCSC(=O)C(C)(C)C)O[C@@H]1CCC[C@@H]1n1cnc2c(N)ncnc21 [(1S,2R)-9-(cyclopentyl)-Ade-2′-P-bis(t-Bu-SATE)]

Compound: Nc1ncnc2c1ncn2[C@@H]1O[C@H](CO)[C@@H](OP(=O)(O)OP(=O)(O)OP(=O)(O)O)[C@H]1O [Ado 3′˜PPP]
IC50 [1, 11]: 2000 nM

Compound: Nc1ncnc2c1ncn2C1OC(CO)C(OP(=O)(O)OP(=O)(O)O)C1O (centres unmarked) [Ado 3′˜PP]
IC50 [1, 11]: 3900 nM

Compound: Nc1ncnc2c1ncn2C1OC(CO)C(OP(=O)(O)O)C1O (centres unmarked) [Ado 3′˜P]
IC50 [1, 11]: 8900 nM

Compound: Nc1ncnc2c1ncn2[C@@H]1O[C@H](CO)[C@@H](O)[C@H]1O [Ado]
IC50 [1, 11]: 82000 nM

Compound: CC(=O)SCCOP(=O)(OCCSC(C)=O)O[C@H]1C[C@H](n2cnc3c(N)ncnc32)O[C@@H]1C [Compound 1, 2′,5′-dideoxyadenosine-3′-O-bis(S-acetyl-2-thioethyl) phosphate]
IC50 [3]: 30 nM

Compound: C[C@H]1O[C@@H](n2cnc3c(N)ncnc32)C[C@@H]1OP(=O)(OCCSC(=O)C(C)(C)C)OCCSC(=O)C(C)(C)C [Compound 2, 2,5′-dideoxyadenosine-3′-O-bis(S pivaloyl-2-thioethyl) phosphate]
rate of differentiation [4]: accelerated rates of differentiation
stimulation of contractility caused by phenylephrine [5]: completely blocked
stimulation of contractility caused by forskolin ([5]; not shown): completely blocked
IC50 ([6]; human macrophages, 15 min preincubation, forskolin 15 min): 50 nM
IC50 [2, 13]: 30 nM
inhibition of adenylyl cyclase of Ob1771 cell membranes at 100 μM ([7]; at 100 μM): 20% inhibition
effect on the activity of adenylyl cyclases per se, enzyme from the preadipocytes ([7]; isolated enzyme): no effect
IC50 [8]: ~82 nM
effect on adenylyl cyclase isolated from these tissues [9]: no effect
inhibition of Rat Brain Adenylyl Cyclase at 100 μM ([10]; at 100 μM): no inhibition
effect on the activity of adenylyl cyclases per se, enzyme from rat brain ([10]; isolated enzyme): no effect
IC50 [3]: 100 nM

Compound: C[C@H]1O[C@@H](n2cnc3c(N)ncnc32)C[C@@H]1OP(=O)(OCCSC(=O)c1ccccc1)OCCSC(=O)c1ccccc1 [Compound 3, 2,5′-dideoxyadenosine-3′-O-bis(S-benzoyl-2-thioethyl) phosphate]
IC50 [3]: 800 nM

Compound: C[C@H]1O[C@@H](n2cnc3c(N)ncnc32)C[C@@H]1OP(=O)(OCCSC(=O)C(C)(C)C)OCCSC(=O)C(C)(C)C [Compound 5, β-L-2′,5′-dideoxyadenosine-3′-O-bis(S-pivaloyl-2-thioethyl)-phosphate]
IC50 [3]: ~2000 nM

Compound: CC(C)(C)C(=O)SCCOP(=O)(OCCSC(=O)C(C)(C)C)OC[C@@H]1CC[C@H](n2cnc3c(N)ncnc32)O1 [Compound 8, β-L-2′,3′-dideoxyadenosine-5′-O-bis(S-pivaloyl-2-thioethyl)-phosphate]
IC50 [2, 13]: > 30000 nM

Compound: CC1OC(n2cnc3c(N)ncnc32)CC1OP1(=O)OCc2ccccc2O1 (centres unmarked) [Compound 10, 2′,5′-dideoxyadenosine-3.0-cyclosaligenyl phosphate]
IC50 ([6]; Homo sapiens, Macrophage): ~2000 nM
IC50 [2]: ~2000 nM
IC50 [7]: 30000 nM
IC50 [10, 14]: 7000 nM

Compound: Cc1cccc2c1OP(=O)(OC1CC(n3cnc4c(N)ncnc43)OC1C)OC2 (centres unmarked) [Compound 11, 2′,5′-dideoxyadenosine-3′-O-cyclo-3-methyl-saligenyl phosphate]
IC50 [2]: ~2000 nM
IC50 [7]: 60000 nM
IC50 [10, 14]: 7000 nM

IC50 [2, 13]: > 30000 nM
Compound: CC(C)(C)C(=O)SCCOP(=O)(COCCn1cnc2c(N)ncnc21)OCCSC(=O)C(C)(C)C [Compound 13, bis(t-Bu-SATE)-9-(2-phosphonomethoxyethyl)-adenine]

Compound: C[C@H](Cn1cnc2c(N)ncnc21)OCP(=O)(OCCSC(=O)C(C)(C)C)OCCSC(=O)C(C)(C)C [Compound 16, (R)-Bis(S-pivaloyl-2-thioethyl) 9-(2-phosphonylmethoxypropyl)-adenine]
IC50 [3]: > 30000 nM

Compound: Nc1ncnc2c1ncn2CCOCP(=O)(O)O [PMEA, 9-(phosphonomethoxyethyl)-adenine]
IC50 [1, 11]: 65000 nM

Compound: Nc1ncnc2c1ncn2CCOCP(=O)(O)OP(=O)(O)OP(=O)(O)O [PMEApp]
IC50 [1, 12]: 170 nM

IC50 [10, 15]: 450 nM
Compound: Nc1ncnc2c1ncn2[C@@H]1CCC[C@@H]1OP(=O)(O)OP(=O)(O)OP(=O)(O)O [reference compound]

IC50 [10, 15]: 9860 nM
Compound: Nc1ncnc2c1ncn2[C@H]1CCC[C@H]1OP(=O)(O)OP(=O)(O)OP(=O)(O)O [reference compound]

Compound: Nc1ncnc2c1ncn2[C@@H]1CC[C@H](COP(=O)(O)O)O1 [β-L-2′,3′-dd-5′-AMP]
IC50 [1, 11]: 62000 nM

Compound: Nc1ncnc2c1ncn2C1CCC(COP(=O)(O)OP(=O)(O)OP(=O)(O)O)O1 [β-L-2′,3′-dd-5′-ATP]
IC50 [1, 12]: 24 nM

Compound: Nc1ncnc2c1ncn2[C@H]1O[C@@H](COP(=O)(O)O)[C@H](O)[C@@H]1O [β-L-5′-AMP]
IC50 [1, 11]: 200000 nM

Reference: US7045309B2, “9-substituted adenine derivatives as prodrug regulators of cell and tissue function” (The Research Foundation of State University of New York, priority 2000, dated 2006)
